The record followed here is patent US10961215B2, “N-aryl and N-heteroaryl piperidine derivatives as liver X receptor beta agonists, compositions, and their use” (Merck Sharp & Dohme Corp., priority 2016, dated 2021).

The structures appear in SMILES notation. pEC50: −log10 of the molar value.

In experiment [1] the target is T1, GST tagged LXRbeta LBD (ligand binding domain) (Homo sapiens, UniProt P55055).
T1 construct: purchased Invitrogen pv4658.pps
T1 sequence (P55055 222-460 limits assumed): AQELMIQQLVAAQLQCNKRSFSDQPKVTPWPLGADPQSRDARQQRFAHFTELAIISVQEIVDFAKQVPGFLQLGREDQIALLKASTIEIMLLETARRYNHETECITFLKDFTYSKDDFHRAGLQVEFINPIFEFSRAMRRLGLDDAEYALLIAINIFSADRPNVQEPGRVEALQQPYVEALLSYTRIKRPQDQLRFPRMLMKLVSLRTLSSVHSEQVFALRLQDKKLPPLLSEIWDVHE
Kind of experiment: LanthaScreen TR-FRET Liver X Receptor Coactivator Assay, LXR beta-LBD (co-activator recruitment; IP and % Emax relative to T0901317). It is filed as biochemical. To be noted: for pEC50: Inflection Point of co-activator recruitment, LXR beta-LBD, TR-FRET; for Emax: efficacy at max dose in relation to reference T0901317, LXR beta-LBD, read-out: LXR beta actiivty at max dose (%). As for the experimental part:
(§1) Potency (Inflection Point, IP) and efficacy (Emax) are evaluated via compound-induced co-activator recruitment to glutathione-S-transferase (GST) tagged LXRbeta and LXRalpha LBD (ligand binding domain) proteins in relation to reference dual agonist compound T0901317 (N-(2,2,2-Trifluoroethyl)-N-[4-[2,2,2-trifluoro-1-hydroxy-1-(trifluoromethyl)ethyl]phenyl]benzenesulfonamide) using the LanthaScreen™ TR-FRET Liver X Receptor Coactivator Assays according to manufacturer's instructions (Invitrogen catalog number pv4658.pps and pv4655). While running the LanthaScreen™ TR-FRET Liver X Receptor Coactivator Assay, LXR alpha-LBD or LXR beta-LBD was added to ligand test compounds followed by addition of a mixture of a fluorescein-labelled coactivator peptide and terbium-conjugated anti-GST antibody. After an incubation period at room temperature, TR-FRET (time-resolved fluorescence resonance energy transfer) was measured using a filter-based instrument capable of TR-FRET, e.g. PerkinElmer Envision.
On the technique in general: In TR-FRET formats the signal depends on donor and acceptor labels being close together.

Experiment [2] deals with T2, GST tagged LXRalpha LBD (ligand binding domain) (Homo sapiens, UniProt Q13133).
T2 construct: purchased Invitrogen pv4655
T2 sequence (Q13133 209-447 limits assumed): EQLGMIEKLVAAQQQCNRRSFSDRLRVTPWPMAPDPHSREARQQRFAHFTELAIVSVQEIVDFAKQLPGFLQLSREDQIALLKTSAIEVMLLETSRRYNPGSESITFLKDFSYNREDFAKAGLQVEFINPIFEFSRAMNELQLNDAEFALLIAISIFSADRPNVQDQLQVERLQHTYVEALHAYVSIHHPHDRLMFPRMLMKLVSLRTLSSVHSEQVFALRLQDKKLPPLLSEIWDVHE
Kind of experiment: LanthaScreen TR-FRET Liver X Receptor Coactivator Assay, LXR alpha-LBD (co-activator recruitment; IP and % Emax relative to T0901317). The class given is biochemical. The settings on record: for LXR alpha IP (nM) / pEC50: Inflection Point of co-activator recruitment, LXR alpha-LBD, TR-FRET; for Emax: efficacy at max dose in relation to reference T0901317, LXR alpha-LBD, read-out: LXR alpha actiivty at max dose (%). As for the experimental part:
as §1

For orientation: pEC50 means the negative decadic logarithm of the EC50, by convention in mol/L. Turning to `CN(C)C(=O)c1ccc(N2CCC(CCCN(C)C(=O)[C@@](N)(c3ccccc3)C(F)(F)F)CC2)nc1Cl` [Example 1-30, (S)-6-(4-(3-(2-amino-3,3,3-trifluoro-N-methyl-2-phenylpropanamido)propyl)piperidin-1-yl)-2-chloro-N,N-dimethylnicotinamide], in experiment [1], the pEC50 is 6.63 and the Emax amounted to 47%. In experiment [2], the “LXR alpha IP (nM)” value is given as “No IP” and the Emax stood at 1%.

For `CN(C)C(=O)c1ccc(N2CCC(CCCN(C)C(=O)[C@](C)(O)c3ccccc3)CC2)nc1Cl` [Example 1-20, (R)-2-chloro-6-(4-(3-(2-hydroxy-N-methyl-2-phenylpropanamido)propyl)piperidin-1-yl)-N,N-dimethylnicotinamide], in experiment [1], the pEC50 is 6.29 and the Emax was determined as 32%. Further, in experiment [2], the “LXR alpha IP (nM)” value was “No IP” and the Emax amounted to 6%.

On to `CN[C@@](C(=O)N(C)CCCC1CCN(c2ccc(C(=O)N(C)C)c(Cl)n2)CC1)(c1cccc(OC)c1)C(F)(F)F` [Example 1-57, (R)-2-chloro-N,N-dimethyl-6-(4-(3-(3,3,3-trifluoro-2-(3-methoxyphenyl)-N-methyl-2-(methylamino)propanamido)propyl)piperidin-1-yl)nicotinamide], for which, in experiment [1], the pEC50 is 6.57 and the Emax amounted to 48%. Moreover, in experiment [2], the “LXR alpha IP (nM)” value was “No IP” and the Emax came out at 0%.

As for `COc1cccc([C@@](O)(C(=O)NC[C@H](C)CC2CCN(c3ccc(C(=O)N(C)C)c(Cl)n3)CC2)C(F)(F)F)c1` [Example 3-5], in experiment [1], the pEC50 is 6.81 and the Emax was 57%. Moreover, in experiment [2], the negative-log EC50 (pEC50) is 5.54 and the Emax came to 22%.

`CN(C)C(=O)c1ccc(N2CCC(CCCN(C)C(=O)C3(c4ccccc4)CCC3)CC2)nc1Cl` [Example 1-43, 2-chloro-N,N-dimethyl-6-(4-(3-(N-methyl-1-phenyl-cyclobutanecarboxamido)propyl)piperidin-1-yl)nicotinamide]: in experiment [1], the negative-log EC50 (pEC50) is 6.96 and the Emax amounted to 54%. For the same compound, in experiment [2], the “LXR alpha IP (nM)” value is recorded as “No IP” and the Emax turned out to be 11%.

Turning to `CN(C)C(=O)c1ccc(N2CCC([C@@H]3C[C@H]3CNC(=O)[C@@](O)(c3ccccc3)C(F)(F)F)CC2)nc1Cl` [Example 15-13, 2-chloro-N,N-dimethyl-6-(4-((1S,2R)-2-(((S)-3,3,3-trifluoro-2-hydroxy-2-phenylpropanamido)methyl)cyclopropyl)piperidin-1-yl)nicotinamide], in experiment [1], the pEC50 is 6.27 and the Emax is 84%. Besides, in experiment [2], the “LXR alpha IP (nM)” value is “No IP” and the Emax amounted to 17%.

As for `CN(C)C(=O)c1ccc(N2CCC(CCCN(C)C(=O)[C@]3(c4ccccc4F)CCCO3)CC2)nc1Cl` [Example 1-6, (R)-2-chloro-6-(4-(3-(2-(2-fluorophenyl)-N-methyl-tetrahydrofuran-2-carboxamido)propyl)piperidin-1-yl)-N,N-dimethylnicotinamide], in experiment [1], the pEC50 was 7.19 and the Emax turned out to be 80%. Also, in experiment [2], the pEC50 was 5.84 and the Emax worked out at 27%.

On to `CC(C)[C@]1(C(=O)N(C)CCCC2CCN(c3ccc(C(=O)N(C)C)c(Cl)n3)CC2)CCCO1` [Example 1-19, (S)-2-chloro-6-(4-(3-(2-isopropyl-N-methyl-tetrahydrofuran-2-carboxamido)propyl)piperidin-1-yl)-N,N-dimethylnicotinamide], for which, in experiment [1], the pEC50 is 5.98 and the Emax stood at 41%. Moreover, in experiment [2], the pEC50 is 4.76 and the Emax worked out at 38%.

`COc1cccc([C@@](O)(C(=O)N(C)CC[C@H]2CC23CCN(c2ccc(C(=O)NC(C)C)c(Cl)c2)CC3)C(F)(F)F)c1` [Example 7-10, 2-chloro-N-isopropyl-4-((R)-1-(2-((R)-3,3,3-trifluoro-2-hydroxy-2-(3-methoxyphenyl)-N-methylpropanamido)ethyl)-6-azaspiro[2.5]octan-6-yl)benzamide]: the pEC50 in experiment [1] was 7.00; in experiment [2], 5.97. In addition, the Emax came out at 58% in experiment [1] and 35% in experiment [2].

As for `CN(C)C(=O)c1ccc(N2CCC(CCCN(C)C(=O)[C@](N)(c3ccccc3)C(F)(F)F)CC2)nc1Cl` [Example 1-29, (R)-6-(4-(3-(2-amino-3,3,3-trifluoro-N-methyl-2-phenylpropanamido)propyl)piperidin-1-yl)-2-chloro-N,N-dimethylnicotinamide], in experiment [1], the pEC50 is 6.40 and the Emax was 51%. For the same compound, in experiment [2], the “LXR alpha IP (nM)” value is “No IP” and the Emax turned out to be 8%.

As for `CN(C)C(=O)c1ccc(N2CCC(CCCN(C)C(=O)[C@](O)(c3cccc(C4CC4)c3)C(F)(F)F)CC2)nc1Cl` [Example 1-33, (R)-2-chloro-6-(4-(3-(2-(3-cyclopropylphenyl)-3,3,3-trifluoro-2-hydroxy-N-methylpropanamido)propyl)piperidin-1-yl)-N,N-dimethylnicotinamide], in experiment [1], the pEC50 is 7.77 and the Emax stood at 70%. Further, in experiment [2], the “LXR alpha IP (nM)” value is on record as “No IP” and the Emax came out at 0%.

As for `CN(C)C(=O)c1ccc(N2CCC3(CC2)CC3CCN(C)C(=O)[C@](O)(c2cccc(OC(F)(F)F)c2)C(F)(F)F)cc1Cl` (stereo in doubt) [Example 7-4, 2-chloro-N,N-dimethyl-4-((R)-1-(2-((R)-3,3,3-trifluoro-2-hydroxy-N-methyl-2-(3-(trifluoromethoxy)phenyl)propanamido)ethyl)-6-azaspiro[2.5]octan-6-yl) benzamide], in experiment [1], the negative-log EC50 (pEC50) was 7.70 and the Emax stood at 64%. Further, in experiment [2], the pEC50 is 6.08 and the Emax was 26%.

`COc1cccc([C@@](O)(C(=O)N(C)CCCC2CCN(c3ccc(C(=O)NC(C)C)c(Cl)n3)CC2)C(F)(F)F)c1` [Example 2-1, (R)-2-chloro-N-isopropyl-6-(4-(3-(3,3,3-trifluoro-2-hydroxy-2-(3-methoxyphenyl)-N-methylpropanamido)propyl)piperidin-1-yl)nicotinamide]: in experiment [1], the pEC50 is 6.16 and the Emax is 51%. Besides, in experiment [2], the “LXR alpha IP (nM)” value is recorded as “No IP” and the Emax was 18%.

As to `CC(C)[C@](O)(C(=O)N(C)CCCC1CCN(c2ccc(C(=O)N(C)C)c(Cl)n2)CC1)c1ccccc1` [Example 1-2, (R)-2-chloro-6-(4-(3-(2-hydroxy-N,3-dimethyl-2-phenylbutanamido)propyl)piperidin-1-yl)-N,N-dimethylnicotinamide], in experiment [1], the pEC50 was 6.59 and the Emax stood at 68%. In experiment [2], the “LXR alpha IP (nM)” value is reported as “No IP” and the Emax was determined as 16%.

Take `CC(C)C(O)(C(=O)NCCCC1CCN(c2ccc(C(=O)N(C)C)c(Cl)c2)CC1)C(F)(F)F` (stereo not drawn) [Example 5-2, 2-chloro-4-(4-(3-(2-hydroxy-3-methyl-2-(trifluoromethyl)butanamido)propyl)piperidin-1-yl)-N,N-dimethyl-benzamide]: in experiment [1], the pEC50 was 6.16 and the Emax stood at 80%. In experiment [2], the “LXR alpha IP (nM)” value is reported as “No IP” and the Emax came to 11%.
